Patent US20110152218A1, “CRYSTALLINE PHOSPHOLIPID, METHOD FOR ITS PRODUCTION AND USE IN TREATING DAMAGED TISSUE” (priority 2008, published 2011)

Legend:
[1] = system: HPMC; test: HPMC ATP bioluminescence assay; format: cell-based, human; conditions: 72 hours
Procedure: The viability of HPMC after stimulation with FCS, phospholipid prepared according to Example 1 (Vibrated and Non-vibrated), lysophosphatidic acid (LPA), DPPC, DPPC/LPA, POPC, Curosurf, egg-PG (EPG) and the three Intralipid™ products was determined using an ATP assay. This assay measures the light emitted during the ATP dependant oxidation of luciferin in order to accurately quantify the ATP concentration.
As described in Example 3, primary HPMC are isolated from omental tissue biopsies donated by consenting patients undergoing elective abdominal surgery. Cells are grown to approximately 60% confluence in 96 well plates (Falcon) and used at passage 2. All cells are growth arrested in serum free M199 for 24 hours prior to use.
An ATP Bioluminescence Assay Kit CLS II (Roche Diagnostics, Cat No 1 699 695, 11857300) was used. It contains ATP Standard, Luciferase and distilled water. A 10 mM EDTA solution was prepared by dissolving 1.8612 g EDTA (Fischer Scientific, Code D/0650/60, Batch 0447430, Mr-372.24) in 500 ml H2O (or 3.7224 g in 1 litre). A BAC-extract solution was prepared by dissolving 1 g Benzalkonium Chloride (Sigma-Aldrich, Cat:-23, 442-7, Lot S22104-334) in 1 litre of 10 mM EDTA. […]
To mix, rotate the bottle carefully. • 2) Make up an ATP standard solution having a base concentration of 1.65 μM ATP. […] Use distilled water as the control. • 4) Set the Fluostar Optima plate reader to measure luminescence. Set the Fluostar Optima plate reader pump to inject 20 μl of luciferase into each of the required wells. • 5) Place the plate into the plate reader and measure the relative light units (RLU). • 6) Prepare a standard curve such as that shown in FIG. 16 by plotting a graph of RLU against ATP concentration.
96 well plates from the HPMC proliferation study were defrosted. […] The ATP concentrations were calculated from the RLU of the samples using the standard curve. As an alternative to using an ATP standard curve, data can be normalised to the un-stimulated control and expressed as “ATP (% of control)”.

[2] = system: human peritoneal mesothelial cell (HPMC); test: HPMC proliferation, Alamar Blue and MTT assay; format: cell-based; conditions: 48 hours and 72 hours; over the tested concentrations in supplemented M199
Procedure: The effect of a phospholipid prepared as described in Example 1 (and/or its constituent compounds) to induce human peritoneal mesothelial cell proliferation was assessed using an Alamar Blue™ assay and an MTT assay.
The Alamar Blue™ assay is designed to measure the proliferation of various cell types by measuring the ability of the cells to metabolise and reduce a REDOX indicator (Alamar Blue™). Reduction of the REDOX indicator results in a change in its fluorescent activity. Therefore the fluorescent activity measured is proportional to cell proliferation.
The MTT Assay measures the proliferations of various cells and is based on the mitochondrial conversion of tetrazolium salt 3-[4,5-dimethyl-thiazol-2-yl]-2,5-diphenyltetrazium bromide (MTT), into an insoluble formazan salt. The resultant colour change is directly related to the number of viable cells.
As described in Morgan L W et al (“Glucose degradation products (GDP) retard re-mesothelialisation independently of D-glucose concentration.” Kidney Int 64:1854-1866, 2003), primary HPMC are isolated from omental tissue biopsies donated by consenting patients undergoing elective abdominal surgery. Cells were grown to approximately 60% confluence in 96 well plates (Falcon) and used at passage 2. All cells were growth arrested in serum free M199 for 24 hours prior to use.
The supplemented M199 medium was prepared as follows. Earle's salt medium M199 was supplemented with 100μ/ml penicillin, 100 μg/ml streptomycin, 2 mM glutamine, 5 μg/ml insulin, 5 μg/ml transferrin and 0.4 μg/ml hydrocortisone and 2 mmol/L N-2-hydroxyethylpiperazine-N′-2ethanesulfonic acid.
The phospholipid prepared as described in Example 1 was prepared as follows. […]
The growth medium was aspirated from each well and then the well was washed once using 200 μl per well of supplemented M199. […] The fluorescent activity of Alamar Blue™ at 540 nm (wavelength) was measured using a Dynex Revalation 96-multiwell plate reader. […]

CCCCCCCC/C=C\CCCCCCCC(=O)O[C@H](COC(=O)CCCCCCCCCCCCCCC)COP(=O)([O-])OCC[N+](C)(C)C [POPC, Palmitoyl oleoyl phosphatidyl choline]
HPMC proliferation by ATP assay compared to the negative control ([1]; 0.0875 mg/ml, FIG. 11G): increased HPMC proliferation | HPMC proliferation compared to the negative control [2]: no significant stimulation of HPMC proliferation

Lysophosphatidic acid [LPA]
HPMC proliferation by ATP assay (ATP % of control) compared to the negative control ([1]; single well, over the tested concentrations): no increase of HPMC proliferation | HPMC proliferation compared to the negative control [2]: no significant stimulation of HPMC proliferation
